PMC8841438 (Clinical and Translational Science, 2021)
“Also recorded” adds a separate entry of the source. Where two headings read alike, the source gives them in different places. Values belong to the molecule of their own block, whether it stands above or below them.

Legend:
[1] = type: in vivo, human; settings: study 1
[2] = type: in vivo, human; settings: study 2
[3] = target: T1, organic cation transporter 2 (OCT2) (Homo sapiens, UniProt O15244); test: In vitro transporter inhibition: OCT2; type: in vitro ADME; settings: data on file at Gilead Sciences, Inc.
T1 sequence (O15244 1-555): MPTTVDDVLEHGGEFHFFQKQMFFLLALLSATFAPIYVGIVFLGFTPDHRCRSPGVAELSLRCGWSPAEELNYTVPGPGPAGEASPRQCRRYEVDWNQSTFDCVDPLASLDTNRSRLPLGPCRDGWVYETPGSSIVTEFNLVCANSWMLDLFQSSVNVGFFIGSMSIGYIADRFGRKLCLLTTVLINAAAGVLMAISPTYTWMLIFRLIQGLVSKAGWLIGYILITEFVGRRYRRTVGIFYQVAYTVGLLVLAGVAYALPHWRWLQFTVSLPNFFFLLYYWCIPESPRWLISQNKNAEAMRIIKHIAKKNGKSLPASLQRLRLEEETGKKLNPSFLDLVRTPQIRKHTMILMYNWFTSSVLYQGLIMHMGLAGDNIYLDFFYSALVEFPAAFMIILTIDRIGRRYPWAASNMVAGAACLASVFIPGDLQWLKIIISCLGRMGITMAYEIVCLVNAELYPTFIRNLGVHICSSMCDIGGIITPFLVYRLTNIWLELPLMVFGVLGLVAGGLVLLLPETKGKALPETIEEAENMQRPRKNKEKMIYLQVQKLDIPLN

MATE2K = MATE2K (Homo sapiens, UniProt Q86VL8); test: In vitro transporter inhibition: MATE2K; type: in vitro ADME; settings: data on file at Gilead Sciences, Inc.
Sequence of MATE2K (Q86VL8 1-566 isoform Q86VL8-3): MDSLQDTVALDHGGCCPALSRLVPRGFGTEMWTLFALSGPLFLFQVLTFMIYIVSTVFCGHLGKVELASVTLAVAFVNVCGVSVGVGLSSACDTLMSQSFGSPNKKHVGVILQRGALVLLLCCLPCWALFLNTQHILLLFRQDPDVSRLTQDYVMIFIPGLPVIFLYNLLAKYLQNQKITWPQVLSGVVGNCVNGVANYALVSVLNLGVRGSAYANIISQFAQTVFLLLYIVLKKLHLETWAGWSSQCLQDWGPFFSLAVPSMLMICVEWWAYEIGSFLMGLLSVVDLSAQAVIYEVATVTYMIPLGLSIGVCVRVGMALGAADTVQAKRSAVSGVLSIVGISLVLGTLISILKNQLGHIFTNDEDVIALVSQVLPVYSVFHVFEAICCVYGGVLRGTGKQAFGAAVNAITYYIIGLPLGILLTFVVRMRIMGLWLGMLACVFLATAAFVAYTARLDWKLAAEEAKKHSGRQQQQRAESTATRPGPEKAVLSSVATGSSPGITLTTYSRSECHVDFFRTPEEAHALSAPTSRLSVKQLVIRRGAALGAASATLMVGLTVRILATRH

JAK1 = settings: cited from earlier work
[4] = filgotinib: unchanged; cited from earlier work
P‐glycoprotein = settings: in vitro; cited from earlier work
P‐gp = settings: in vitro; at clinically relevant concentrations; cited from earlier work
[5] = system: breast cancer resistance protein; settings: in vitro; at clinically relevant concentrations; cited from earlier work
[6] = system: organic cation transporter 1; settings: in vitro; at clinically relevant concentrations; cited from earlier work
bile salt export pump = settings: in vitro; at clinically relevant concentrations; cited from earlier work
[7] = system: organic anion transporter 1; settings: in vitro; at clinically relevant concentrations; cited from earlier work
[8] = system: organic anion transporter 3; settings: in vitro; at clinically relevant concentrations; cited from earlier work
[9] = system: organic anion transporter 4; settings: in vitro; at clinically relevant concentrations; cited from earlier work
[10] = cited from earlier work
Safety assessments = type: in vivo, human; settings: for subjects with AEs: all grade 1
[11] = available data; cited from earlier work
[12] = Study 3: metformin pharmacokinetics alone or with filgotinib in healthy subjects; settings: human, plasma, oral, 850 mg
CES1 = settings: human hepatocytes; cited from earlier work
CES2 = settings: human hepatocytes; cited from earlier work
[13] = filgotinib + itraconazole vs filgotinib alone
[14] = single filgotinib 100 mg alone, fasting, median (Q1, Q3), N = 13
[15] = single filgotinib 100 mg alone, fasting, plasma, mean (%CV), N = 13
[16] = filgotinib 200 mg after multiple doses of rifampin 600 mg vs alone
[17] = filgotinib + rifampin vs filgotinib alone
[18] = single filgotinib 200 mg alone, fasting, plasma, mean (%CV), N = 14
[19] = single filgotinib 200 mg alone, median (Q1, Q3), N = 14
[20] = patients with rheumatoid arthritis

- AUCinf %GLSM ratio (90% CI) [1, 13]: 107 (104,110) %
- AUClast %GLSM ratio (90% CI) [1, 13]: 106 (103,109) %
- T max [1, 14]: 4.00 (4.00, 4.00) h
- t1/2 [1, 14]: 17.0 (14.0,19.5) h
- AUCinf [1, 15]: 31,200 (18.4) ng*h/ml
- AUClast [1, 15]: 30,800 (18.0) ng*h/ml
- C max [1, 15]: 1160 (24.8) ng/ml
- reduction in AUCinf by rifampin [2, 16]: 38%
- reduction in C max by rifampin [2, 16]: 19%
- AUCinf %GLSM ratio (90% CI) [2, 17]: 61.9 (57.9, 66.1) %
- AUClast %GLSM ratio (90% CI) [2, 17]: 62.3 (58.4, 66.4) %
- C max %GLSM ratio (90% CI) [2, 17]: 81.0 (76.8, 85.4) %
- effect of rifampin on T max and t 1/2 (in words) ([2]; filgotinib: T max and t 1/2, GS‐829845: Tmax): similar
- AUCinf [2, 18]: 77,400 (25.3) ng*h/ml
- AUClast [2, 18]: 76,700 (24.8) ng*h/ml
- C max [2, 18]: 2900 (15.1) ng/ml
- Tmax [2, 19]: 4.00 (3.00, 4.00) h
- t1/2 [2, 19]: 15.9 (14.8, 18.9) h
- inhibition of OCT2 (in words) ([3]; in vitro data): may inhibit
- ratio of maximum unbound plasma concentration over in vitro IC50 against OCT2 [3, 20]: 0.5
- inhibition of MATE2K (in words) (MATE2K; in vitro data): may inhibit
- ratio of maximum unbound plasma concentration over in vitro IC50 against MATE2K (MATE2K; [20]): 0.69
SMILES: Nc1nc2cccc(-c3ccc(CN4CCS(=O)(=O)CC4)cc3)n2n1 [GS‐829845]
- effect of itraconazole on pharmacokinetic parameters (in words) ([1]; filgotinib: Tmax, t1/2, GS‐829845: C max, AUCinf, T max, t 1/2): no effect; also recorded: similar; also recorded: did not affect
- JAK1 potency relative to filgotinib (JAK1): ~ 1/10
- orally administered dose recovered in feces as the named species [4]: ~ 9%
- orally administered dose recovered in urine as the named species [4]: ~ 54%
- substrate of P‐glycoprotein (P‐glycoprotein): substrates
- inhibition of P‐gp (P‐gp): not inhibitors
- inhibition of breast cancer resistance protein [5]: not inhibitors
- inhibition of organic cation transporter 1 [6]: not inhibitors
- inhibition of bile salt export pump (bile salt export pump): not inhibitors
- inhibition of organic anion transporter 1 [7]: not inhibitors
- inhibition of organic anion transporter 3 [8]: not inhibitors
- inhibition of organic anion transporter 4 [9]: not inhibitors
- accumulation following multiple doses [10]: approximately twofold accumulation
- time to steady‐state concentrations [10]: ~4 days

- AUC(0-inf) [12]: 8.72 µg·h/mL
- AUC(0-t) [12]: 8.64 µg·h/mL
SMILES: CN(C)C(=N)N=C(N)N [Metformin, metformin]
- subjects with AEs (Safety assessments; study 3, by treatment period): 25%
- AE considered related to study drug (kind of AE) (Safety assessments; study 3, one subject, by treatment phase): nausea + vomiting
- maximal increase of metformin exposure via OCT2, MATE1, and MATE2K inhibition [11]: ~ 2.6 fold

SMILES: CO[C@H]1/C=C/O[C@@]2(C)Oc3c(C)c(O)c4c(O)c(c(/C=N/N5CCN(C)CC5)c(O)c4c3C2=O)NC(=O)/C(C)=C\C=C\[C@H](C)[C@H](O)[C@@H](C)[C@@H](O)[C@@H](C)[C@H](OC(C)=O)[C@@H]1C [rifampin, reference compound]
- subjects with AEs considered to be related to study drug (nausea) (Safety assessments; study 2): 7.1%
- subjects with grade 3 laboratory abnormality (occult blood in urine) (Safety assessments; study 2): 14%
- subjects with AEs (Safety assessments; study 2, by treatment period): 14%
- subjects with at least one graded laboratory abnormality (Safety assessments; study 2, by treatment period, majority grade 1 or 2): 93%
- induction of CES1 (CES1): moderate induction
- induction of CES2 (CES2): moderate induction
